For nine compounds, AC50 results are on record in ChEMBL document CHEMBL5291721, “A preclinical secondary pharmacology resource illuminates target-adverse drug reaction associations of marketed drugs” (Nat Commun, 2023).

The target in test [1] is Prostaglandin G/H synthase 1 (Homo sapiens, UniProt P23219). The class given is functional.
For a further test, the target named is Histamine H3 receptor (Homo sapiens, UniProt Q9Y5N1).
For another test, the target named is Prothrombin (Homo sapiens, UniProt P00734). The class given is functional.
Test [2] addresses 3',5'-cyclic-AMP phosphodiesterase 4A (Homo sapiens, UniProt P27815). The class given is functional.
Test [3] concerns the target T1, 5-hydroxytryptamine receptor 1A (Homo sapiens, UniProt P08908).
T1 sequence (P08908 whole entry): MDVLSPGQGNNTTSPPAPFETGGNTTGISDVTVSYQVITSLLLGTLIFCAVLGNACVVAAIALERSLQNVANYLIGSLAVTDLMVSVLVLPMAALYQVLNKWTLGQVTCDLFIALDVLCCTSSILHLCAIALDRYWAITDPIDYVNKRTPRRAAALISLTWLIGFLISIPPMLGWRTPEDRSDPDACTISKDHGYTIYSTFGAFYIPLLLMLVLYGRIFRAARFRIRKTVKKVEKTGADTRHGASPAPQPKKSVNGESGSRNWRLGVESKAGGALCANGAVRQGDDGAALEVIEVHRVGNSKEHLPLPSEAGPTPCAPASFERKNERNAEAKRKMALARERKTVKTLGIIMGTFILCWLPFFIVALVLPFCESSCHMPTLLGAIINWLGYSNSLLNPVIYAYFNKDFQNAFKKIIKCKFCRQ

For test [4], the target named is T2, Muscarinic acetylcholine receptor M2 (Homo sapiens, UniProt P08172).
T2 sequence (P08172 whole entry): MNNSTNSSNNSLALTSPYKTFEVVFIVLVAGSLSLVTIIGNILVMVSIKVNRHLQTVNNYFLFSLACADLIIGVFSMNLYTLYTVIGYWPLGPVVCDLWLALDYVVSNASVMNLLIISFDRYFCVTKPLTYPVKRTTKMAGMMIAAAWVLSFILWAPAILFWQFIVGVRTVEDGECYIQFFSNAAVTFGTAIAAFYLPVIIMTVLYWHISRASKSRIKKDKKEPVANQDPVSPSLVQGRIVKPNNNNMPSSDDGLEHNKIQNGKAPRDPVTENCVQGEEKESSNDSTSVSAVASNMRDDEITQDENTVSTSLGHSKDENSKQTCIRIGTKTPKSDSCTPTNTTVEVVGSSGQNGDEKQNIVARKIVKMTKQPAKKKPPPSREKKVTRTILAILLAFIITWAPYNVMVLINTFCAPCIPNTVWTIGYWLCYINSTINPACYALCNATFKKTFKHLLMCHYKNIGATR

In the next test the target is Acetylcholinesterase (Homo sapiens, UniProt P22303). It is filed as functional.
Test [5] deals with cGMP-inhibited 3',5'-cyclic phosphodiesterase 3A (Homo sapiens, UniProt Q14432). It is filed as functional.
Test [6] addresses T3, Thromboxane A2 receptor (Homo sapiens, UniProt P21731).
T3 sequence (P21731 whole entry): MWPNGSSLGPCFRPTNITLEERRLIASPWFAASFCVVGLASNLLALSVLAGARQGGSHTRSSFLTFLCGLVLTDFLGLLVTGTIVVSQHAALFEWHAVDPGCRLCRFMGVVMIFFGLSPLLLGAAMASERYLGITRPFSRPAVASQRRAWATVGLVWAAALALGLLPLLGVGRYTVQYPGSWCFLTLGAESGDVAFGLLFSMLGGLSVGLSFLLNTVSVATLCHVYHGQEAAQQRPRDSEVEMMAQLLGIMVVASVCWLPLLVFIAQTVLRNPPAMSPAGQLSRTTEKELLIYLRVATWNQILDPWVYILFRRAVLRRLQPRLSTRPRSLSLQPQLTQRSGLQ
The class given is functional, cell-based.

Test [7] addresses T4, Amine oxidase [flavin-containing] A (Homo sapiens, UniProt P21397).
T4 sequence (P21397 whole entry): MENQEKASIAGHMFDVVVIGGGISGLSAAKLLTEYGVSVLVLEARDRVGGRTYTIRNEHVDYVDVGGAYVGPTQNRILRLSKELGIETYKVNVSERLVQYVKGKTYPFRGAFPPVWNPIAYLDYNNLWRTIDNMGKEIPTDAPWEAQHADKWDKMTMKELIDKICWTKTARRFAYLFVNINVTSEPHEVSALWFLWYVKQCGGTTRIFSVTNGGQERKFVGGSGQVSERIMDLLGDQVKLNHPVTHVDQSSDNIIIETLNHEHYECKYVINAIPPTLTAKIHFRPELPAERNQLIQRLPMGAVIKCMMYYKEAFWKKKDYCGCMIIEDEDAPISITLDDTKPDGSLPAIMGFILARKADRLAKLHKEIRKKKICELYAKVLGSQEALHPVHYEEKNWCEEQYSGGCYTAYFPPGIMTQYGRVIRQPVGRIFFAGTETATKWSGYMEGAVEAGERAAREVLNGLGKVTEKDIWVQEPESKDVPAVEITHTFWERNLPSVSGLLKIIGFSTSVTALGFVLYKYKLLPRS
It is filed as functional.

In test [8] the target is 5-hydroxytryptamine receptor 2B (Homo sapiens, UniProt P41595). It is filed as functional, cell-based.
The target in test [9] is Sodium-dependent dopamine transporter (Homo sapiens, UniProt Q01959).
For test [10], the target named is T5, Alpha-2A adrenergic receptor (Homo sapiens, UniProt P08913).
T5 sequence (P08913 whole entry): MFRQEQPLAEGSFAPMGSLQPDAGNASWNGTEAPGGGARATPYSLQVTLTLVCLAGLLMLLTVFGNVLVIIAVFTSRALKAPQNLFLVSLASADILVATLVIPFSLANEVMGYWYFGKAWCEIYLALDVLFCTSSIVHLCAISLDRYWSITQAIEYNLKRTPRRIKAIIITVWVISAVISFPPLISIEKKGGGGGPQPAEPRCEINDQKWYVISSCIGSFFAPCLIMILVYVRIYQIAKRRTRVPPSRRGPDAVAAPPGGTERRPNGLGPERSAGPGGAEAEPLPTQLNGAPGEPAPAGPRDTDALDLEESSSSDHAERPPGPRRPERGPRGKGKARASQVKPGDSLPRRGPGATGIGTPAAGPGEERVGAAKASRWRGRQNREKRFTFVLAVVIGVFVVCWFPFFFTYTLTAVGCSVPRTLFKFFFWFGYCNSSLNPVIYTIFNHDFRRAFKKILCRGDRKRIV

Test [11] deals with T3, Thromboxane A2 receptor. The class given is functional, cell-based. The source holds these as a separate data set.
Test [12] addresses Voltage-gated inwardly rectifying potassium channel KCNH2 (Homo sapiens, UniProt Q12809). The class given is functional.
Note: assay procedure not described here.

Histamine H3 receptor, sequence (Q9Y5N1 whole entry): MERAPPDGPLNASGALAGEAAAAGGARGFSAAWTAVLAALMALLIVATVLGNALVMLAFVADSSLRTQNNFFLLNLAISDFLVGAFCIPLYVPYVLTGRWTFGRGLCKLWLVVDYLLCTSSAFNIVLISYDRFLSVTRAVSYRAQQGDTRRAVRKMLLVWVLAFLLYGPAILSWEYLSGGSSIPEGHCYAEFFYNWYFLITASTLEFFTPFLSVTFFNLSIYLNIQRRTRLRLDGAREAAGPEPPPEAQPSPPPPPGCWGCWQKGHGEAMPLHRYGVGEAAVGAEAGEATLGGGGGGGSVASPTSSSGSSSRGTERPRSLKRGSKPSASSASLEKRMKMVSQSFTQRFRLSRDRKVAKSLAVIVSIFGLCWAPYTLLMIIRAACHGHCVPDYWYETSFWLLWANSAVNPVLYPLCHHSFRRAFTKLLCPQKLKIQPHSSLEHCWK
cGMP-inhibited 3',5'-cyclic phosphodiesterase 3A, sequence (Q14432 whole entry): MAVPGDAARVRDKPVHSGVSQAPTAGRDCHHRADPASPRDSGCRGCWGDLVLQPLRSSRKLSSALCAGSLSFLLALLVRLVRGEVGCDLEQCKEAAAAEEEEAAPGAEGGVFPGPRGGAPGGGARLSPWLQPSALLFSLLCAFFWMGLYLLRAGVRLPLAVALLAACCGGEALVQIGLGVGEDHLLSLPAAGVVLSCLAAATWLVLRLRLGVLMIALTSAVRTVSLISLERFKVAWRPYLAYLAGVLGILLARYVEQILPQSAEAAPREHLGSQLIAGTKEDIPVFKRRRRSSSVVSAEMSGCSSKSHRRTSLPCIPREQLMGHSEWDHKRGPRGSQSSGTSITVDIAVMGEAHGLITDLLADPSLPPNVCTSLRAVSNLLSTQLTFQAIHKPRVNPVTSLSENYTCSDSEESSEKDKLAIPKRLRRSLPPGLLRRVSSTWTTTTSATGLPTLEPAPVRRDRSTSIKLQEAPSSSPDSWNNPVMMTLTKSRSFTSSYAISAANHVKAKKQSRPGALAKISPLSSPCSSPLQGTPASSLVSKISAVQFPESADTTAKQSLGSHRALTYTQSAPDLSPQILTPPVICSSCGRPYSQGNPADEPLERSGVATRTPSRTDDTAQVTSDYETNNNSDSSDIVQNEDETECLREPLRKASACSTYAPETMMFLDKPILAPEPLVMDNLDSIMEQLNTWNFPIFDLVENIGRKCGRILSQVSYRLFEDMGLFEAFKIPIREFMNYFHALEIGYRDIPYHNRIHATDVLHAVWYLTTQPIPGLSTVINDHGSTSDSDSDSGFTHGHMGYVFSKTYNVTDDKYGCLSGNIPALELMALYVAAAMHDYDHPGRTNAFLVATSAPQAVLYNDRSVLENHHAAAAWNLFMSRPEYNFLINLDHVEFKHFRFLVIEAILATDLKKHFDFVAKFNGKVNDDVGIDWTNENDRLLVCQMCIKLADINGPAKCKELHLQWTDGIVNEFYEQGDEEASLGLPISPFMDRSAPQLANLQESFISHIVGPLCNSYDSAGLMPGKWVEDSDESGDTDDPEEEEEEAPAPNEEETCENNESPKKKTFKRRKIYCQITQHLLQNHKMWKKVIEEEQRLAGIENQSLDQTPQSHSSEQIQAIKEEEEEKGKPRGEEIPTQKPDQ
5-hydroxytryptamine receptor 2B, sequence (P41595 whole entry): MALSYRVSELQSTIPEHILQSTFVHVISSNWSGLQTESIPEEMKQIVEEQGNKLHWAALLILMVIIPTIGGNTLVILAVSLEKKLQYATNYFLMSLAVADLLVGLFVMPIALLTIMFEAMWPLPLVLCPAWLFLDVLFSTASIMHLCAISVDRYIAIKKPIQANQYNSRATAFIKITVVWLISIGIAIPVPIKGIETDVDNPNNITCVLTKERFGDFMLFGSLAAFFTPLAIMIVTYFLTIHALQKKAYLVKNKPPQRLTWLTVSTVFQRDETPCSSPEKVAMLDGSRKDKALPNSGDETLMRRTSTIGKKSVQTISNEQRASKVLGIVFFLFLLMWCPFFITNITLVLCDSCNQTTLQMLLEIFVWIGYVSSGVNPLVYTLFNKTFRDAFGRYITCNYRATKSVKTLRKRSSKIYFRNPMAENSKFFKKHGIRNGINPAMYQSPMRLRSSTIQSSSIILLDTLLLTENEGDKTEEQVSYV
Acetylcholinesterase, sequence (P22303 whole entry): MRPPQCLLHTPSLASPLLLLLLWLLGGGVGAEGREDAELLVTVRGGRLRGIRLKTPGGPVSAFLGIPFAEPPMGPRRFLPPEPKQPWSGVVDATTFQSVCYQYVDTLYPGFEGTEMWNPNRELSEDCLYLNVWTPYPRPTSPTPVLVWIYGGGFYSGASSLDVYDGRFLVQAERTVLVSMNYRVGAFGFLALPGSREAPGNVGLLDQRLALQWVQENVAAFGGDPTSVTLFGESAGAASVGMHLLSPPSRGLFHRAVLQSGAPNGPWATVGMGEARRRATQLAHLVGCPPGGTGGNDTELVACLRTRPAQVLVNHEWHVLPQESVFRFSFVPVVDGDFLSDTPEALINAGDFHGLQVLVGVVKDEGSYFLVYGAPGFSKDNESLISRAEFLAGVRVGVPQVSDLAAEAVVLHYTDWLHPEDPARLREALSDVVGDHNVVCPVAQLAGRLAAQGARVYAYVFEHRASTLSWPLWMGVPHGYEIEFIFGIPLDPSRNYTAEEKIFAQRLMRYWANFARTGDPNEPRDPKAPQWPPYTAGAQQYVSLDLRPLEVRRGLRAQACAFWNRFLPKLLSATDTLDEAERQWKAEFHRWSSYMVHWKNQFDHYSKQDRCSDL
3',5'-cyclic-AMP phosphodiesterase 4A, sequence (P27815 whole entry): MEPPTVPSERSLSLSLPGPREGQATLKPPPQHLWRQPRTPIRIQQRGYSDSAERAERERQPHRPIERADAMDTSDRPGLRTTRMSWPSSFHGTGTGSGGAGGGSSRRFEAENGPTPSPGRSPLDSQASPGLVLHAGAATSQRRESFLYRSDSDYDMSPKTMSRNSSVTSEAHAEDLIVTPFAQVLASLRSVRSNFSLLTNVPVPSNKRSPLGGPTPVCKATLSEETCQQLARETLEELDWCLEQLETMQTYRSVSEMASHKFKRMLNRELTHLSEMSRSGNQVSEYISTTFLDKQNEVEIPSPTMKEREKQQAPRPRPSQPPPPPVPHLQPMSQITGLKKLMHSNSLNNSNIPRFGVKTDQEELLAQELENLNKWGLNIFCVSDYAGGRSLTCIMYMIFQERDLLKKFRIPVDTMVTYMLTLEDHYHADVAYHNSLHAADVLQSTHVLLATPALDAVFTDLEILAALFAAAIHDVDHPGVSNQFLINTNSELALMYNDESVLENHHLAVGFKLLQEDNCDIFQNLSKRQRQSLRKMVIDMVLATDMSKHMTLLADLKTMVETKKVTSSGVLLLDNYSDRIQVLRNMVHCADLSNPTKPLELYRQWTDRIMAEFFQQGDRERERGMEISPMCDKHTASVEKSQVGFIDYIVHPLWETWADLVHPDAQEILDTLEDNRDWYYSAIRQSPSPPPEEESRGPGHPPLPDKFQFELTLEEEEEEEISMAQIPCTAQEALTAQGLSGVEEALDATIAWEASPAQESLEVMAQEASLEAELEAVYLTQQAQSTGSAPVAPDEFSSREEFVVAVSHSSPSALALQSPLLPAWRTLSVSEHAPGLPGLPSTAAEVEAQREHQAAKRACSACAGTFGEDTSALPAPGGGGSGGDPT
Prostaglandin G/H synthase 1, sequence (P23219 whole entry): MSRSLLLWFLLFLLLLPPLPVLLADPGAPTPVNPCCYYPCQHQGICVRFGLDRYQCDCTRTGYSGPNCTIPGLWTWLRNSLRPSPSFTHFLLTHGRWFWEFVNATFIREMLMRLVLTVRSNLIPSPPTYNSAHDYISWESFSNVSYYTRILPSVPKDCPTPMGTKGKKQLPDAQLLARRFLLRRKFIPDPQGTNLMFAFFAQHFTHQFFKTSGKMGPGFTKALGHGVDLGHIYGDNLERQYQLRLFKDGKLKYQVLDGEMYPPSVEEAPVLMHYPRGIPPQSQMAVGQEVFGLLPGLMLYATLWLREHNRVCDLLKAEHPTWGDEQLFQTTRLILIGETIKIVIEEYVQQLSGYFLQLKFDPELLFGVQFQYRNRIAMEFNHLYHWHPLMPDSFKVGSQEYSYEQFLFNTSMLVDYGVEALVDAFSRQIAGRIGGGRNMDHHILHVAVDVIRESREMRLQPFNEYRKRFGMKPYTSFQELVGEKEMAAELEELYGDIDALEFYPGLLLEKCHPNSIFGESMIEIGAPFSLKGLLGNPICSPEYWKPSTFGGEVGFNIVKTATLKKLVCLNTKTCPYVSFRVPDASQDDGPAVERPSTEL
Sodium-dependent dopamine transporter, sequence (Q01959 whole entry): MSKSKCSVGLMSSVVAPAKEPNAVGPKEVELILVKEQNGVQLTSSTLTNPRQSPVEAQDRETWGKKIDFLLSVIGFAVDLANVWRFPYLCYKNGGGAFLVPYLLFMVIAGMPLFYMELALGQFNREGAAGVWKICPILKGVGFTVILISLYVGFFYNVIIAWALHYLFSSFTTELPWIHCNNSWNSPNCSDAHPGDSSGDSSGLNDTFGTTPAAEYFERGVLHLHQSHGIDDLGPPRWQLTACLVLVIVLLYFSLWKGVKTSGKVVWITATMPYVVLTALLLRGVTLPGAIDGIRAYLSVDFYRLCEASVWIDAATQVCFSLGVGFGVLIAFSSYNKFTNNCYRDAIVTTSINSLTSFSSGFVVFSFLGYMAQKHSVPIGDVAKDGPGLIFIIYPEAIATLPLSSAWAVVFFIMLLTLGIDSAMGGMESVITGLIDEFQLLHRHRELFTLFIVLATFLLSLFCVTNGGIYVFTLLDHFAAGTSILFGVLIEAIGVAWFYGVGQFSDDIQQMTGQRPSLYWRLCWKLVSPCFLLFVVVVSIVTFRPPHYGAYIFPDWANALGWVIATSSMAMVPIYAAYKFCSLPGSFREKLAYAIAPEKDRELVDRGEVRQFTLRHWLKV

As for `C[C@H](N[C@@H](CCc1ccccc1)C(=O)O)C(=O)N1Cc2ccccc2C[C@H]1C(=O)O`, the AC50 (in test [1]; at Histamine H3 receptor; at Prothrombin; in test [2]; in [3]; in test [4]) was more than 30 µM in each case. For the same compound, the AC50 (on Acetylcholinesterase; in test [5]; at Thromboxane A2 receptor [6]; in [7]; in test [8]; in test [9]) was more than 30 µM each time. Moreover, the AC50 (in test [10]; at Thromboxane A2 receptor [11]) was more than 30 µM throughout.
With `CC1(C)S[C@@H]2[C@H](/N=C/N3CCCCCC3)C(=O)N2[C@H]1C(=O)O` [AMDINOCILLIN], the AC50 (in [1]; on Histamine H3 receptor; at Prothrombin; in [2]; in test [3]; in [4]) was more than 30 µM each time. The AC50 (at Acetylcholinesterase; in test [5]; at Thromboxane A2 receptor [6]; in test [7]; in test [8]; in [9]) was more than 30 µM in each case. In addition, the AC50 (in test [10]; at Thromboxane A2 receptor [11]) was more than 30 µM throughout.
On to `CC(=O)[C@]1(N)Cc2c(O)c3c(c(O)c2[C@@H](O[C@H]2C[C@H](O)[C@H](O)CO2)C1)C(=O)c1ccccc1C3=O` [AMRUBICIN], for which the AC50 (in general, the concentration at which the activity in the assay is half-maximal) is 2.81 µM in test [1]; more than 30 µM at Histamine H3 receptor; more than 30 µM at Prothrombin; more than 30 µM in [2]; more than 30 µM in test [3]; more than 30 µM in [4]. Also, the AC50 is more than 30 µM on Acetylcholinesterase; more than 30 µM in [5]; 11.8 µM at Thromboxane A2 receptor [6]; more than 30 µM in test [7]; more than 30 µM in test [8]; more than 30 µM in test [9]. Further, the AC50 in test [10] was more than 30 µM; at Thromboxane A2 receptor [11], more than 1 µM.
With `CC(=O)OC[C@H]1O[C@@H](n2ncc(=O)[nH]c2=O)[C@H](OC(C)=O)[C@@H]1OC(C)=O` [AZARIBINE], the AC50 (in test [1]; on Histamine H3 receptor; at Prothrombin; in test [2]; in test [3]; in [4]) was more than 30 µM throughout. In addition, the AC50 (on Acetylcholinesterase; in [5]; at Thromboxane A2 receptor [6]; in test [7]; in test [8]; in test [9]) was more than 30 µM in each case. Also, the AC50 (in test [10]; at Thromboxane A2 receptor [11]) was more than 30 µM each time.
For `O=C(/C=C/c1cccc(S(=O)(=O)Nc2ccccc2)c1)NO` [BELINOSTAT], the AC50 is 6.9 µM in [1]; more than 30 µM on Histamine H3 receptor; more than 30 µM on Prothrombin; 23.7 µM in [2]; more than 30 µM in [3]; more than 30 µM in test [4]. For the same compound, the AC50 (at Acetylcholinesterase; in [5]; at Thromboxane A2 receptor [6]; in test [7]; in test [8]; in [9]) was more than 30 µM each time. Further, the AC50 (in test [10]; at Thromboxane A2 receptor [11]) was more than 30 µM throughout.
For the compound `C[C@H](CCC(=O)O)[C@H]1CC[C@H]2[C@@H]3[C@H](O)C[C@@H]4C[C@H](O)CC[C@]4(C)[C@H]3C[C@H](O)[C@]12C` [CHOLIC ACID], the AC50 (at Histamine H3 receptor; on Prothrombin; in [12]; in test [2]; in test [3]; in test [4]) was more than 30 µM each time. Also, the AC50 at Acetylcholinesterase is more than 30 µM; in test [5], 13.8 µM; on Thromboxane A2 receptor [6], more than 30 µM; in test [7] it was more than 30 µM; in [8] it was more than 30 µM; in test [9] it was more than 30 µM. Besides, the AC50 (in test [10]; on Thromboxane A2 receptor [11]) was more than 30 µM each time.
For `Cc1cn([C@H]2O[C@@H](CO)[C@H](O)[C@H]2F)c(=O)[nH]c1=O` [CLEVUDINE], the AC50 (in test [1]; at Histamine H3 receptor; at Prothrombin; in test [2]; in [3]; in test [4]) was more than 30 µM in each case. The AC50 (at Acetylcholinesterase; in test [5]; at Thromboxane A2 receptor [6]; in [7]; in [8]; in test [9]) was more than 30 µM each time. The AC50 (in [10]; on Thromboxane A2 receptor [11]) was more than 30 µM throughout.
`CC(=O)[C@H]1CC[C@H]2[C@@H]3C=CC4=CC(=O)CC[C@@]4(C)[C@@H]3CC[C@]12C` [DYDROGESTERONE]: the AC50 (in [1]; at Histamine H3 receptor; on Prothrombin; in test [2]; in [3]; in test [4]) was more than 30 µM throughout. Moreover, the AC50 (on Acetylcholinesterase; in test [5]; at Thromboxane A2 receptor [6]; in test [7]; in test [8]; in test [9]) was more than 30 µM in each case. Besides, the AC50 was more than 30 µM in [10] and 25.1 µM on Thromboxane A2 receptor [11].
Take `NNCCc1ccccc1` [PHENELZINE]: the AC50 was 0.5 µM in [1]; more than 30 µM on Histamine H3 receptor; more than 30 µM on Prothrombin; more than 30 µM in test [12]; more than 30 µM in test [2]; more than 30 µM in [4]. The AC50 on Acetylcholinesterase is more than 30 µM; in test [5], more than 30 µM; on Thromboxane A2 receptor [6] it was more than 30 µM; in test [8], more than 30 µM; in test [9], more than 30 µM; in test [10], 25.4 µM. Also, the AC50 on Thromboxane A2 receptor [11] was more than 30 µM.
